Results: patent US8685436B2, “Use of hydroxyflavanones for masking bitter taste” (Symrise AG, priority 2001, dated 2014)
Where a name gives a salt, the structure may show the parent alone.

Assays:
[1] = Debittering black tea, bitterness rated by an expert group; assay type: in vivo; details: Tea sample 2 + 0.05% homoeriodictyol disodium salt; scale 1 just perceptibly bitter, 5 very bitter; tea sample 2 alone rated 5
Method: Two different types of black tea were brewed using boiling water (3 g of tea to 100 ml, allowed to infuse for 3 min, filter) and were then tasted by an expert group. The bitterness was rated using a scale of 1 to 5 (1 just perceptibly bitter, 5 very bitter).

[2] = Masking the bitter taste of a β-lactam antibiotic, difference testing and bitter intensity rating by 7 testers; assay type: in vivo
Text: A solution of Faropenem Daloxate ([5R-[3(R*),5α,6α(R*)]]-6-(1-hydroxyethyl)-7-oxo-3-(tetrahydro-2-furanyl)-4-thia-1-azabicyclo[3.2.0]hept-2-ene-2-carboxylic acid (5-methyl-2-oxo-1,3-dioxol-4-yl)methyl ester, CAS No. 141702-36-5, 0.1% by weight in water, sample 1) and a mixture of Faropenem Daloxate+homoeriodictyol disodium salt (each 0.1% by weight in water, sample 2) were made up. A group of 7 testers were each given 3 samples for difference testing. 4 testers received sample 1 as a duplicate sample, 3 testers received sample 2 as a duplicate sample. The samples were tasted in differing orders. Of 7 testers, 7 correctly identified the individual sample. The average bitter intensity of sample 1 was rated 5, that of sample 2 was rated 2 (scale 1 to 5).

[3] = relatively high concentrations (450 ppm); cited from earlier work

SMILES: COc1cc(C2CC(=O)c3c(O)cc(O)cc3O2)ccc1O (stereo not shown) [homoeriodictyol disodium salt, 2-(4-hydroxy-3-methoxyphenyl)-5,7-dihydroxychroman-4-one]
- Rating (1–5) of bitterness [1]: 2
- average bitter intensity (scale 1 to 5) ([2]; sample 2: Faropenem Daloxate + homoeriodictyol disodium salt, each 0.1% by weight in water): 2

SMILES: COc1ccc(OC(C)C(=O)[O-])cc1.[Na+] (stereo not shown) [Lactisol, 2(-4-Methoxyphenoxy)propionic acid sodium salt]
- bitter-reducing effect [3]: weak bitter-reducing effect

SMILES: Cc1oc(=O)oc1COC(=O)C1=C([C@H]2CCCO2)S[C@@H]2[C@@H]([C@@H](C)O)C(=O)N12 (relative stereo) [Faropenem Daloxate, [5R-[3(R*),5α,6α(R*)]]-6-(1-hydroxyethyl)-7-oxo-3-(tetrahydro-2-furanyl)-4-thia-1-azabicyclo[3.2.0]hept-2-ene-2-carboxylic acid (5-methyl-2-oxo-1,3-dioxol-4-yl)methyl ester]
- average bitter intensity (scale 1 to 5) ([2]; sample 1: Faropenem Daloxate alone, 0.1% by weight in water): 5
